Source: the supplement of paper PMC10307832

How the values were obtained:
Assay in all cases: relative viability (nuclei count vs DMSO), 5 days (fraction); higher = more cells survive
Obatoclax + Dasatinib = compound: COC1=CC(c2cc3ccccc3[nH]2)=N/C1=C\c1[nH]c(C)cc1C [Obatoclax] + Cc1nc(Nc2ncc(C(=O)Nc3c(C)cccc3Cl)s2)cc(N2CCN(CCO)CC2)n1 [Dasatinib] (partner 0.075 µM)
Summary of the method: (§1)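 Nuclei were stained with Hoechst during a one-step fixation (final 0.05% Triton X-100, 1% formaldehyde, 1 ug/ml Hoechst) carried out 5 days after dosing, then counted on 4× images. The cells, lung cancer lines in 1536-well plates, had been dosed by pin tool the day after seeding with one drug alone or a fixed anchor-drug dose plus five library-drug doses (not always all listed) in √10 steps. Relative viability is the nuclei count in treated wells divided by that in vehicle wells, and each value is the median of duplicate plates.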

Obatoclax + Foretinib = compound: COC1=CC(c2cc3ccccc3[nH]2)=N/C1=C\c1[nH]c(C)cc1C [Obatoclax] + COc1cc2c(Oc3ccc(NC(=O)C4(C(=O)Nc5ccc(F)cc5)CC4)cc3F)ccnc2cc1OCCCN1CCOCC1 [Foretinib] (partner 0.25 µM)
Summary of the method: as §1

Obatoclax + Phenformin = compound: COC1=CC(c2cc3ccccc3[nH]2)=N/C1=C\c1[nH]c(C)cc1C [Obatoclax] + N=C(N)NC(=N)NCCc1ccccc1 [Phenformin] (partner 250 µM)
Summary of the method: as §1

[1] = compound: CC1=CC(=NN1)NC2=CC(=NC(=N2)/C=C/C3=CC=CC=C3)N4CCN(CC4)C + C[C@]1(O)C[C@@H](c2nc(-c3ccc4ccc(-c5ccccc5)nc4c3)c3c(N)nccn32)C1 [Linsitinib] (partner 1 µM)
Summary of the method: as §1

Row | Cell Line | relative viability (Obatoclax + Dasatinib; first compound 0.01 µM) | relative viability (Obatoclax + Dasatinib; first compound 0.03162 µM) | relative viability (Obatoclax + Dasatinib; first compound 0.1 µM) | relative viability (Obatoclax + Dasatinib; first compound 0.3162 µM) | relative viability (Obatoclax + Dasatinib; first compound 1 µM) | relative viability (Obatoclax + Foretinib; first compound 0.01 µM) | relative viability (Obatoclax + Foretinib; first compound 0.03162 µM) | relative viability (Obatoclax + Foretinib; first compound 0.1 µM) | relative viability (Obatoclax + Foretinib; first compound 0.3162 µM) | relative viability (Obatoclax + Foretinib; first compound 1 µM) | relative viability (Obatoclax + Phenformin; first compound 0.01 µM) | relative viability (Obatoclax + Phenformin; first compound 0.03162 µM) | relative viability (Obatoclax + Phenformin; first compound 0.1 µM) | relative viability (Obatoclax + Phenformin; first compound 0.3162 µM) | relative viability (Obatoclax + Phenformin; first compound 1 µM) | relative viability ([1]; first compound 0.08 µM) | relative viability ([1]; first compound 0.253 µM) | relative viability ([1]; first compound 0.8 µM) | relative viability ([1]; first compound 2.53 µM) | relative viability ([1]; first compound 8 µM)
1 | ChaGo-K-1 | 0.637 | 0.582 | 0.502 | 0.584 | 0.644 | 0.83 | 0.947 | 0.913 | 0.901 | 1.03 | 0.511 | 0.506 | 0.444 | 0.462 | 0.527 | – | – | – | – | –
2 | EBC-1 | – | – | – | – | – | 0.102 | 0.112 | 0.119 | 0.119 | 0.113 | – | – | – | – | – | 0.852 | 0.874 | 0.923 | 0.71 | 0.317
3 | EKVX | 0.567 | 0.491 | 0.539 | 0.594 | 0.522 | 0.911 | 0.76 | 0.427 | 0.752 | 1.09 | 0.257 | 0.218 | 0.141 | 0.232 | 0.231 | 1.02 | 1.13 | 1.1 | 0.788 | 0.144
4 | EMC-BAC-2 | 0.357 | 0.325 | 0.255 | 0.264 | 0.284 | 0.987 | 1.03 | 1.08 | 0.864 | 0.788 | 0.478 | 0.526 | 0.398 | 0.466 | 0.371 | 0.821 | 0.91 | 0.77 | 0.594 | 0.204
5 | EPLC-272H | 0.36 | 0.31 | 0.342 | 0.264 | 0.147 | 0.735 | 0.577 | 0.769 | 0.619 | 0.499 | 0.255 | 0.277 | 0.351 | 0.225 | 0.158 | 1.11 | 1.32 | 1.06 | 0.675 | 0.367
6 | H3255 | 0.301 | 0.323 | 0.422 | 0.348 | 0.302 | 0.826 | 0.802 | 0.891 | 1.05 | 0.996 | 0.306 | 0.377 | 0.372 | 0.335 | 0.42 | 0.95 | 1.09 | 0.975 | 0.886 | 0.391
7 | HARA | 0.226 | 0.233 | 0.335 | 0.358 | 0.255 | 0.966 | 0.93 | 0.91 | 0.935 | 1 | 0.427 | 0.432 | 0.463 | 0.455 | 0.357 | 1.07 | 0.899 | 1.03 | 0.139 | 0.0705
8 | HCC-15 | 0.574 | 0.589 | 0.533 | 0.626 | 0.368 | 1.04 | 1.05 | 0.846 | 0.912 | 0.857 | 0.486 | 0.432 | 0.348 | 0.438 | 0.327 | 0.908 | 0.967 | 0.853 | 0.469 | 0.149
9 | HCC-44 | – | – | – | – | – | – | – | – | – | – | 0.268 | 0.185 | 0.0802 | 0.14 | 0.111 | 0.64 | 0.755 | 0.659 | 0.235 | 0.201
